From ChEMBL document CHEMBL6182949 (J Med Chem, 2025)
Activity calls are given as the source filed them. No cut-off for these calls is given here.

Legend:
[1] = biological target: T1, Protein cereblon/Interleukin-1 receptor-associated kinase 4 (Homo sapiens, UniProt Q9NWZ3+Q96SW2); test: PROTAC activity at CRBN/IRAK4 in human THP-1 cells assessed as induction of IRAK4 degradation incubated for 24 hrs by HiBiT lytic reagent based analysis; assay type: cell-based
Target sequence in this assay (Q9NWZ3 whole entry): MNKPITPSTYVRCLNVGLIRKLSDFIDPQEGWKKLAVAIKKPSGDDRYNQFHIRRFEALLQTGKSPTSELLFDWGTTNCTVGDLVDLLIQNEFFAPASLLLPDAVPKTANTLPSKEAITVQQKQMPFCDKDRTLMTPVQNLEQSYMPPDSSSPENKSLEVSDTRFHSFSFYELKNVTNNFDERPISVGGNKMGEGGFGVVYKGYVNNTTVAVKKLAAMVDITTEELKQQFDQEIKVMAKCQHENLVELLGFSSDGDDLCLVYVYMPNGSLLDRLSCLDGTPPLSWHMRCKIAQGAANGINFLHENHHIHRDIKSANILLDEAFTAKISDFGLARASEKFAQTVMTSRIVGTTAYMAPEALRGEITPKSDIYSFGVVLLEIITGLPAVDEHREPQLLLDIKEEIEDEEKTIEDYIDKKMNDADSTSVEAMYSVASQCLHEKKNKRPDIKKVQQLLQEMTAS
Target sequence in this assay (Q96SW2 whole entry): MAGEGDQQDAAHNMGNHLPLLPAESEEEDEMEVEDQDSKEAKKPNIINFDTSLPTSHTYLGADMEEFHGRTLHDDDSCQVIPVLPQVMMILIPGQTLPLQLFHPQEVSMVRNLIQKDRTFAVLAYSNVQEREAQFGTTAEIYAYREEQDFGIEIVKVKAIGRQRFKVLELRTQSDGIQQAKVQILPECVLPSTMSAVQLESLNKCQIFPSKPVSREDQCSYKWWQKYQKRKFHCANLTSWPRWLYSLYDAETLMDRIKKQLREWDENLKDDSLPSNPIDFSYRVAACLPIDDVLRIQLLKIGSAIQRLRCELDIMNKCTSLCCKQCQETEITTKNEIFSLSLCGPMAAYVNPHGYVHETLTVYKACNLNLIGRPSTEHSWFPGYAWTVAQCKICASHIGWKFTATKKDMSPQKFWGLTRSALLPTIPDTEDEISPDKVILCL

[2] = biological target: T1, Protein cereblon/Interleukin-1 receptor-associated kinase 4; test: PROTAC activity at CRBN/IRAK4 in human THP-1 cells assessed as induction of IRAK4 degradation incubated for 24 hrs by HiBiT lytic reagent based analysis relative to control; assay type: cell-based
Target sequence in this assay (Q96SW2 whole entry, looked up): as the sequence (Q96SW2 whole entry) above
Target sequence in this assay (Q9NWZ3 whole entry, looked up): as the sequence (Q9NWZ3 whole entry) above

[3] = Metabolic stability in human liver microsome assessed as half life at 1 uM measured up to 60 mins in presence of NADPH by LC-MS/MS analysis; assay type: ADME; conditions: liver microsomes
[4] = Metabolic stability in cynomolgus monkey liver microsome assessed as half life at 1 uM measured up to 60 mins in presence of NADPH by LC-MS/MS analysis; assay type: ADME, Macaca fascicularis; conditions: liver microsomes
[5] = Metabolic stability in dog liver microsome assessed as half life at 1 uM measured up to 60 mins in presence of NADPH by LC-MS/MS analysis; assay type: ADME, Canis lupus familiaris; conditions: liver microsomes
[6] = Metabolic stability in rat liver microsome assessed as half life at 1 uM measured up to 60 mins in presence of NADPH by LC-MS/MS analysis; assay type: ADME; conditions: liver microsomes
[7] = Metabolic stability in mouse liver microsome assessed as half life at 1 uM measured up to 60 mins in presence of NADPH by LC-MS/MS analysis; assay type: ADME; conditions: liver microsomes
hERG (KCNH2) [8] = biological target: T2, hERG (KCNH2) (Homo sapiens, UniProt Q12809); test: Inhibition of hERG expressed in HEK293 cells at 3 uM by manual patch clamp assay relative to control; assay type: toxicity, cell-based; conditions: HEK293 cells expressing hERG
T2 sequence (Q12809 whole entry): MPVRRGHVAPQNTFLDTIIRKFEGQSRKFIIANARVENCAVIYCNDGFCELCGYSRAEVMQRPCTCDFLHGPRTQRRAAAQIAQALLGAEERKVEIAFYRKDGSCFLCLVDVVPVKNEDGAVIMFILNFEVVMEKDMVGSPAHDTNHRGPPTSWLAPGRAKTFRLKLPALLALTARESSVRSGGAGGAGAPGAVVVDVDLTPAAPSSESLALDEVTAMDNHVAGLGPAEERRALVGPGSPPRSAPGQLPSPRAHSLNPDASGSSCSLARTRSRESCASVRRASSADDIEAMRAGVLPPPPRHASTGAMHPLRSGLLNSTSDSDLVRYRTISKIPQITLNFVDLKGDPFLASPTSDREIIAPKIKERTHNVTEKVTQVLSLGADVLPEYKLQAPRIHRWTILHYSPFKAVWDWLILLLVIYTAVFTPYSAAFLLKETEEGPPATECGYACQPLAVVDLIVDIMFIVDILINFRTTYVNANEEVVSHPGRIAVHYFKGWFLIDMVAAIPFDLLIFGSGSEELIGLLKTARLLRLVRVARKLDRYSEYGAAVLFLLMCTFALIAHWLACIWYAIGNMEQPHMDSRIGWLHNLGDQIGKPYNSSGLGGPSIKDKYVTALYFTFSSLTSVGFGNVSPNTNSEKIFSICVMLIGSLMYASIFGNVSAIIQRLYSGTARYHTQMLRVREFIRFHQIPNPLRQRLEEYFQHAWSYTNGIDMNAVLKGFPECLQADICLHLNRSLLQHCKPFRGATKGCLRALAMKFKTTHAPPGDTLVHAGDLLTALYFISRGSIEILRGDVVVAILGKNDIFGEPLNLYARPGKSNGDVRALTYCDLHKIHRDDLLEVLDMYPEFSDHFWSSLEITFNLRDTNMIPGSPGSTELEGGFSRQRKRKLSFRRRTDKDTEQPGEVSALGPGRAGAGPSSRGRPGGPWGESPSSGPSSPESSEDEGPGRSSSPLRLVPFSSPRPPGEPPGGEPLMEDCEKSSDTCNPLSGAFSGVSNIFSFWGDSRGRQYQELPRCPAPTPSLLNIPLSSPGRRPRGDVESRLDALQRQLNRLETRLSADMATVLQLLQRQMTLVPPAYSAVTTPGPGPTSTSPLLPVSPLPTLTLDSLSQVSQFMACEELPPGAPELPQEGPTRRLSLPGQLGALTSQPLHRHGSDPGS

[9] = Cmax in male C57BL/6 mouse at 2 mg/kg, iv measured up to 24 hrs by LC-MS/MS analysis; assay type: ADME, organism-based; conditions: in vivo
[10] = AUClast in male C57BL/6 mouse at 2 mg/kg, iv measured up to 24 hrs by LC-MS/MS analysis; assay type: ADME, organism-based; conditions: in vivo
[11] = Half life in male C57BL/6 mouse at 2 mg/kg, iv measured up to 24 hrs by LC-MS/MS analysis; assay type: ADME, organism-based; conditions: in vivo
[12] = Clearance in male C57BL/6 mouse at 2 mg/kg, iv measured up to 24 hrs by LC-MS/MS analysis; assay type: ADME, organism-based; conditions: in vivo
[13] = Volume of distribution at steady state in male C57BL/6 mouse at 2 mg/kg, iv measured up to 24 hrs by LC-MS/MS analysis; assay type: ADME, organism-based; conditions: in vivo, read-out: Vdss
[14] = Tmax in male C57BL/6 mouse at 10 mg/kg, po measured up to 24 hrs by LC-MS/MS analysis; assay type: ADME, organism-based; conditions: in vivo
[15] = Cmax in male C57BL/6 mouse at 10 mg/kg, po measured up to 24 hrs by LC-MS/MS analysis; assay type: ADME, organism-based; conditions: in vivo
[16] = AUClast in male C57BL/6 mouse at 10 mg/kg, po measured up to 24 hrs by LC-MS/MS analysis; assay type: ADME, organism-based; conditions: in vivo
[17] = Half life in male C57BL/6 mouse at 10 mg/kg, po measured up to 24 hrs by LC-MS/MS analysis; assay type: ADME, organism-based; conditions: in vivo
[18] = Oral bioavailability in male C57BL/6 mouse at 10 mg/kg measured up to 24 hrs by LC-MS/MS analysis; assay type: ADME, organism-based; conditions: in vivo
[19] = Cmax in Sprague-Dawley rat at 2 mg/kg, iv measured up to 24 hrs by LC-MS/MS analysis; assay type: ADME, organism-based; conditions: in vivo
[20] = AUClast in Sprague-Dawley rat at 2 mg/kg, iv measured up to 24 hrs by LC-MS/MS analysis; assay type: ADME, organism-based; conditions: in vivo
[21] = Half life in Sprague-Dawley rat at 2 mg/kg, iv measured up to 24 hrs by LC-MS/MS analysis; assay type: ADME, organism-based; conditions: in vivo
[22] = Clearance in Sprague-Dawley rat at 2 mg/kg, iv measured up to 24 hrs by LC-MS/MS analysis; assay type: ADME, organism-based; conditions: in vivo
[23] = Volume of distribution at steady state in Sprague-Dawley rat at 2 mg/kg, iv measured up to 24 hrs by LC-MS/MS analysis; assay type: ADME, organism-based; conditions: in vivo, read-out: Vdss
[24] = Tmax in Sprague-Dawley rat at 10 mg/kg, po measured up to 24 hrs by LC-MS/MS analysis; assay type: ADME, organism-based; conditions: in vivo
[25] = Cmax in Sprague-Dawley rat at 10 mg/kg, po measured up to 24 hrs by LC-MS/MS analysis; assay type: ADME, organism-based; conditions: in vivo
[26] = AUClast in Sprague-Dawley rat at 10 mg/kg, po measured up to 24 hrs by LC-MS/MS analysis; assay type: ADME, organism-based; conditions: in vivo
[27] = Half life in Sprague-Dawley rat at 10 mg/kg, po measured up to 24 hrs by LC-MS/MS analysis; assay type: ADME, organism-based; conditions: in vivo
[28] = Oral bioavailability in Sprague-Dawley rat at 10 mg/kg measured up to 24 hrs by LC-MS/MS analysis; assay type: ADME, organism-based; conditions: in vivo
hERG (KCNH2) [29] = biological target: T2, hERG (KCNH2); test: Inhibition of hERG expressed in HEK293 cells at 1 uM by manual patch clamp assay relative to control; assay type: toxicity, cell-based; conditions: HEK293 cells expressing hERG
Mus musculus [30] = test: Anti-arthritic activity against collagen-induced arthritis DBA/1 mouse model assessed as reduction in pathological score at 30 mg/kg, po administered for 14 days; assay type: functional, organism-based; conditions: time 14.0 day
[31] = biological target: T1, Protein cereblon/Interleukin-1 receptor-associated kinase 4; test: PROTAC activity at CRBN/IRAK4 in human PBMC cells assessed as induction of IRAK4 degradation incubated for 24 hrs by HiBiT lytic reagent based analysis relative to control; assay type: cell-based
Target sequence in this assay (Q96SW2 whole entry, looked up): as the sequence (Q96SW2 whole entry) above
Target sequence in this assay (Q9NWZ3 whole entry, looked up): as the sequence (Q9NWZ3 whole entry) above

[32] = Inhibition of LPS-stimulated IL-6 release in human PBMC cells; assay type: functional, cell-based
Mus musculus [33] = test: Anti-psoriasis effect in IMQ-induced C57BL/6 mouse assessed as reduction in cumulative score at 30 mg/kg administered topically twice daily for 6 days and measured after 24 hrs; assay type: functional, organism-based; conditions: time 7.0 day
Mus musculus [34] = test: Anti-psoriasis effect in IMQ-induced C57BL/6 mouse assessed as reduction in cumulative score at 100 mg/kg administered topically twice daily for 6 days and measured after 24 hrs; assay type: functional, organism-based; conditions: time 7.0 day
Mus musculus [35] = test: Anti-psoriasis effect in IMQ-induced C57BL/6 mouse assessed as reduction in delta ear thickness at 30 mg/kg administered topically twice daily for 6 days and measured after 24 hrs; assay type: functional, organism-based; conditions: time 7.0 day
Mus musculus [36] = test: Anti-psoriasis effect in IMQ-induced C57BL/6 mouse assessed as reduction in delta ear thickness at 100 mg/kg administered topically twice daily for 6 days and measured after 24 hrs; assay type: functional, organism-based; conditions: time 7.0 day
[37] = biological target: Voltage-gated inwardly rectifying potassium channel KCNH2 (Homo sapiens, UniProt Q12809); test: Inhibition of hERG expressed in HEK293 cells by manual patch clamp assay; assay type: toxicity, cell-based; parameters: concentration or dose not given beside the values
Chain of Voltage-gated inwardly rectifying potassium channel KCNH2 (Q12809 whole entry): as the sequence (Q12809 whole entry) above

Compound	DC50 [1]	Emax [2]	half-life at 1 µM [3]	half-life at 1 µM [4]	half-life at 1 µM [5]	half-life at 1 µM [6]	half-life at 1 µM [7]	Cmax [9]	AUC(0-t) at 24 h [10]	half-life [11]	clearance [12]	Vd [13]	Tmax [14]	Cmax [15]	AUC(0-t) at 24 h [16]	half-life [17]	bioavailability [18]	other results
Cn1c(=O)n(C2CCC(=O)NC2=O)c2cccc(C#CCO[C@H]3CC[C@H](CN4CCC5(CC4)Cc4cc(NC(=O)c6cnn7cccnc67)c(N6CCC(O)CC6)cc4O5)CC3)c21 (stereo not given in full)	1.37 nM	87%	> 3.07 h	1.07 h	> 3.07 h	> 3.07 h	> 3.07 h	2780 ng/mL	14100 ng·h/mL	2.76 h	2.44 mL/min/kg	0.6 L/kg	4 h	3490 ng/mL	42100 ng·h/mL	3.82 h	59%	inhibition at 3 µM (hERG (KCNH2) [8]): 35%; Cmax [19]: 696 ng/mL; AUClast [20]: 1436 ng·h/mL; half-life [21]: 2.42 h; clearance [22]: 21.4 mL/min/kg; Vd [23]: 3.69 L/kg; Tmax [24]: 8 h; Cmax [25]: 352 ng/mL; AUClast [26]: 3395 ng·h/mL; half-life [27]: 3.16 h; F [28]: 15%
Cn1c(=O)n(C2CCC(=O)NC2=O)c2cccc(C#CCO[C@H]3CC[C@H](CN4CCC5(CC4)Cc4cc(NC(=O)c6cnc7cccnn67)c(N6CCC(CO)CC6)cc4O5)CC3)c21 (stereo not given in full)	4.06 nM	90%	> 3.07 h	–	> 3.07 h	–	> 3.07 h	1230 ng/mL	3190 ng·h/mL	9.75 h	9.75 mL/min/kg	1.66 L/kg	2 h	1190 ng/mL	7390 ng·h/mL	4.4 h	54%	inhibition at 1 µM (hERG (KCNH2) [29]): 15%
C[C@@H]1CCN(C(=O)CC#N)C[C@@H]1N(C)c1ncnc2[nH]ccc12	–	–	–	–	–	–	–	–	–	–	–	–	–	–	–	–	–	Activity (Mus musculus [30]): Active
Cn1c(=O)n(C2CCC(=O)NC2=O)c2cccc(C#CCOC3CCN(C[C@H]4CC[C@H](n5cc(NC(=O)c6cnn7ccc(N8C[C@H]9C[C@@H]8CO9)nc67)c(C(F)F)n5)CC4)CC3)c21 (stereo not given in full) [KT-474]	–	–	–	–	–	–	–	–	–	–	–	–	–	–	–	–	–	Emax [31]: 82%; IC50 [32]: 29.1 nM; Activity (Mus musculus [33]): inactive; Activity (Mus musculus [34]): inactive; Activity (Mus musculus [35]): inactive; Activity (Mus musculus [36]): inactive
Cn1c(=O)n(C2CCC(=O)NC2=O)c2cccc(C#CCO[C@H]3CC[C@H](CN4CCC5(CC4)Cc4cc(NC(=O)c6cnn7cccnc67)c(N6CCC(CO)CC6)cc4O5)CC3)c21 (stereo not given in full)	2.65 nM	90%	> 3.07 h	2.33 h	> 3.07 h	> 3.07 h	> 3.07 h	2000 ng/mL	7160 ng·h/mL	2.69 h	4.67 mL/min/kg	0.94 L/kg	2 h	1540 ng/mL	14800 ng·h/mL	3.7 h	42%	inhibition at 1 µM (hERG (KCNH2) [29]): 28%; Cmax [19]: 1030 ng/mL; AUClast [20]: 2193 ng·h/mL; half-life [21]: 3.94 h; clearance [22]: 15.1 mL/min/kg; Vd [23]: 3.26 L/kg; Tmax [24]: 6 h; Cmax [25]: 261 ng/mL; AUClast [26]: 3524 ng·h/mL; half-life [27]: 3.58 h; F [28]: 11%
Cn1c(=O)n(C2CCC(=O)NC2=O)c2cccc(C#CCO[C@H]3CC[C@H](CN4CCC5(CC4)Cc4cc(NC(=O)c6cnn7cc(C#N)cnc67)c(N6CCC(CO)CC6)cc4O5)CC3)c21 (stereo not given in full)	2.81 nM	89%	> 3.07 h	1.07 h	> 3.07 h	2.45 h	1.98 h	–	–	–	–	–	–	–	–	–	–	inhibition at 3 µM (hERG (KCNH2) [8]): 29%
Cn1c(=O)n(C2CCC(=O)NC2=O)c2cccc(CN3CCC4(CC3)CN(CCN3CCC5(CC3)Cc3cc(NC(=O)c6cnn7cccnc67)c(N6CCC(CO)CC6)cc3O5)C4)c21 (stereo not given)	1.53 nM	95%	0.833 h	1.17 h	> 3.07 h	0.7 h	0.65 h	–	–	–	–	–	–	–	–	–	–	inhibition (INH) [37]: 34%
